{"source": "paper PMC12235220", "about": "“Cell‐Penetrating Peptide‐Based Triple Nanocomplex Enables Efficient Nuclear Gene Delivery in Chlamydomonas reinhardtii” (Biotechnology and Bioengineering, 2025)", "system": "C. reinhardtii cells", "test": "Cellular uptake mechanism of triple nanocomplexes with the endocytosis inhibitor wortmannin", "format": "cell-based, Chlamydomonas reinhardtii", "settings": "wortmannin 33 µM pretreatment 1 h, then pVEC-R6A/Cy3-labeled DNA/SV40 nanocomplex 1 h at 25°C; control TAP with 5% DMSO; microplate reader", "protocol": "To evaluate the cellular uptake mechanism of the triple nanocomplexes in microalgae, a fluorescence‐based assay was performed with wortmannin (Sigma‐Aldrich, USA) to determine the potential involvement of endocytosis in the process. A volume of 100 µL of C. reinhardtii cells (1.5 × 10^7 cells mL^−1) per well was seeded in a 96‐well plate with wortmannin at a final concentration of 33 µM. Cells treated with TAP medium containing 5% dimethyl sulfoxide were used as controls. […] Finally, the Cy3 fluorescence intensity of the samples was measured at 532 nm using a TECAN microplate reader (Bionics, Korea)."}
{"smiles": "COC[C@H]1OC(=O)c2coc3c2[C@@]1(C)C1=C(C3=O)[C@@H]2CCC(=O)[C@@]2(C)C[C@H]1OC(C)=O", "note": "[wortmannin]", "values": [{"measurement": "Reduction of normalized Cy3/chlorophyll a level compared to control", "value": 50, "unit": "%"}]}
